Assay results reported in PubChem BioAssay AID1963433 (Molecular Pharmacology Branch, DTP, NCI, 2024).

Tested on: 772245-204-R-J1-PDC complex spheroid growth
Experiment: Anticancer human tumor 772245-204-R-J1-PDC patient-derived rhabdomyosarcoma cell line growth inhibition [Asc]
Details: for IC50: curve of first compound; for viability, T/C: stronger effect = lower value
Method in brief: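 Spheroid model: tumor line + HUVEC + hMSC. Single agents and combinations; top conc. at/near clinical Cmax (10 microM if undetermined), half-log dilutions. DMSO stocks at 800-fold test concentration.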

[1] = second compound 0.1 µM, first compound 0.00316 µM
[2] = second compound 0.1 µM, first compound 0.01 µM
[3] = second compound 0.1 µM, first compound 0.0316 µM
[4] = second compound 0.1 µM, first compound 0.1 µM
[5] = second compound 0.316 µM, first compound 0.00316 µM
[6] = second compound 0.316 µM, first compound 0.01 µM
[7] = second compound 0.316 µM, first compound 0.0316 µM
[8] = second compound 0.316 µM, first compound 0.1 µM
[9] = second compound 1 µM, first compound 0.00316 µM
[10] = second compound 1 µM, first compound 0.01 µM
[11] = second compound 1 µM, first compound 0.0316 µM
[12] = second compound 1 µM, first compound 0.1 µM
[13] = second compound 3.16 µM, first compound 0.00316 µM
[14] = second compound 3.16 µM, first compound 0.01 µM
[15] = second compound 3.16 µM, first compound 0.0316 µM
[16] = second compound 3.16 µM, first compound 0.1 µM
[17] = second compound 10 µM, first compound 0.00316 µM
[18] = second compound 10 µM, first compound 0.01 µM
[19] = second compound 10 µM, first compound 0.0316 µM
[20] = second compound 10 µM, first compound 0.1 µM
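Also: compound exposure lasted seven days.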
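For viability, T/C in this document: 100% = DMSO vehicle control viability.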

COc1c(OCCCN2CCOCC2)ccc2c3n(c(=NC(=O)c4cnc(N)nc4)nc12)CCN3 + Cc1c(S(C)(=O)=O)c(-c2cc(F)cc(N3CCN(c4ccc(NS(=O)(=O)c5ccc(NC(CCN6CCC(C(=O)OCCCP(=O)(O)O)CC6)CSc6ccccc6)c(S(=O)(=O)C(F)(F)F)c5)cc4)CC3)c2)c(-c2ccc(Cl)cc2)n1C(C)C
IC50 (second compound 0.1 µM): 57.5 nM
IC50 (second compound 0.316 µM): 48.5 nM
IC50 (second compound 1 µM): 21.2 nM
IC50 (second compound 3.16 µM): < 3.16 nM
IC50 (second compound 10 µM): < 3.16 nM
viability, T/C [1]: 82.5%
viability, T/C [2]: 73.1%
viability, T/C [3]: 55.7%
viability, T/C [4]: 45.2%
viability, T/C (second compound 0.1 µM, first compound 0.316 µM): 27.1%
viability, T/C (second compound 0.1 µM, first compound 1 µM): 18.8%
viability, T/C [5]: 64.2%
viability, T/C [6]: 74.5%
viability, T/C [7]: 55.4%
viability, T/C [8]: 36.8%
viability, T/C (second compound 0.316 µM, first compound 0.316 µM): 18.4%
viability, T/C (second compound 0.316 µM, first compound 1 µM): 11.6%
viability, T/C [9]: 65.4%
viability, T/C [10]: 59.9%
viability, T/C [11]: 44.8%
viability, T/C [12]: 24.9%
viability, T/C (second compound 1 µM, first compound 0.316 µM): 12.7%
viability, T/C (second compound 1 µM, first compound 1 µM): 6.44%
viability, T/C [13]: 43.6%
viability, T/C [14]: 56.1%
viability, T/C [15]: 29.4%
viability, T/C [16]: 19.3%
viability, T/C (second compound 3.16 µM, first compound 0.316 µM): 11.5%
viability, T/C (second compound 3.16 µM, first compound 1 µM): 3.48%
viability, T/C [17]: 49.3%
viability, T/C [18]: 41.9%
viability, T/C [19]: 39.1%
viability, T/C [20]: 18.2%
viability, T/C (second compound 10 µM, first compound 0.316 µM): 6.81%
viability, T/C (second compound 10 µM, first compound 1 µM): 3.06%

NC(=O)C(=Cn1cnc(-c2cc(C(F)(F)F)cc(C(F)(F)F)c2)n1)c1cncnc1 + Cc1c(S(C)(=O)=O)c(-c2cc(F)cc(N3CCN(c4ccc(NS(=O)(=O)c5ccc(NC(CCN6CCC(C(=O)OCCCP(=O)(O)O)CC6)CSc6ccccc6)c(S(=O)(=O)C(F)(F)F)c5)cc4)CC3)c2)c(-c2ccc(Cl)cc2)n1C(C)C
IC50 (second compound 0.1 µM): 22 nM
IC50 (second compound 0.316 µM): 6.58 nM
IC50 (second compound 1 µM): < 0.949 nM
IC50 (second compound 3.16 µM): < 0.949 nM
IC50 (second compound 10 µM): < 0.949 nM
viability, T/C (second compound 0.1 µM, first compound 0.000949 µM): 80.2%
viability, T/C (second compound 0.1 µM, first compound 0.003 µM): 72.2%
viability, T/C (second compound 0.1 µM, first compound 0.00949 µM): 64%
viability, T/C (second compound 0.1 µM, first compound 0.03 µM): 43.2%
viability, T/C (second compound 0.1 µM, first compound 0.0949 µM): 29.6%
viability, T/C (second compound 0.1 µM, first compound 0.3 µM): 12.6%
viability, T/C (second compound 0.316 µM, first compound 0.000949 µM): 58.1%
viability, T/C (second compound 0.316 µM, first compound 0.003 µM): 64%
viability, T/C (second compound 0.316 µM, first compound 0.00949 µM): 42.1%
viability, T/C (second compound 0.316 µM, first compound 0.03 µM): 29.2%
viability, T/C (second compound 0.316 µM, first compound 0.0949 µM): 10.3%
viability, T/C (second compound 0.316 µM, first compound 0.3 µM): 3.73%
viability, T/C (second compound 1 µM, first compound 0.000949 µM): 41.2%
viability, T/C (second compound 1 µM, first compound 0.003 µM): 34.8%
viability, T/C (second compound 1 µM, first compound 0.00949 µM): 24%
viability, T/C (second compound 1 µM, first compound 0.03 µM): 8.43%
viability, T/C (second compound 1 µM, first compound 0.0949 µM): 4.25%
viability, T/C (second compound 1 µM, first compound 0.3 µM): 1.91%
viability, T/C (second compound 3.16 µM, first compound 0.000949 µM): 42.5%
viability, T/C (second compound 3.16 µM, first compound 0.003 µM): 27.8%
viability, T/C (second compound 3.16 µM, first compound 0.00949 µM): 23.9%
viability, T/C (second compound 3.16 µM, first compound 0.03 µM): 2.44%
viability, T/C (second compound 3.16 µM, first compound 0.0949 µM): 0.58%
viability, T/C (second compound 3.16 µM, first compound 0.3 µM): 0.81%
viability, T/C (second compound 10 µM, first compound 0.000949 µM): 32.9%
viability, T/C (second compound 10 µM, first compound 0.003 µM): 39.9%
viability, T/C (second compound 10 µM, first compound 0.00949 µM): 22.2%
viability, T/C (second compound 10 µM, first compound 0.03 µM): 5.99%
viability, T/C (second compound 10 µM, first compound 0.0949 µM): 0.9%
viability, T/C (second compound 10 µM, first compound 0.3 µM): 0.59%

NC1CCC(NC2CC2c2ccccc2)CC1 (stereo not given) + Cc1c(S(C)(=O)=O)c(-c2cc(F)cc(N3CCN(c4ccc(NS(=O)(=O)c5ccc(NC(CCN6CCC(C(=O)OCCCP(=O)(O)O)CC6)CSc6ccccc6)c(S(=O)(=O)C(F)(F)F)c5)cc4)CC3)c2)c(-c2ccc(Cl)cc2)n1C(C)C
IC50 (second compound 0.1 µM): > 100 nM
IC50 (second compound 0.316 µM): < 0.316 nM
IC50 (second compound 1 µM): < 0.316 nM
IC50 (second compound 3.16 µM): < 0.316 nM
IC50 (second compound 10 µM): < 0.316 nM
viability, T/C (second compound 0.1 µM, first compound 0.000316 µM): 69.1%
viability, T/C (second compound 0.1 µM, first compound 0.001 µM): 67.9%
viability, T/C [1]: 66%
viability, T/C [2]: 59.6%
viability, T/C [3]: 66.6%
viability, T/C [4]: 61.2%
viability, T/C (second compound 0.316 µM, first compound 0.000316 µM): 42.7%
viability, T/C (second compound 0.316 µM, first compound 0.001 µM): 48.9%
viability, T/C [5]: 41.6%
viability, T/C [6]: 38.2%
viability, T/C [7]: 38.1%
viability, T/C [8]: 45.2%
viability, T/C (second compound 1 µM, first compound 0.000316 µM): 34.1%
viability, T/C (second compound 1 µM, first compound 0.001 µM): 24.2%
viability, T/C [9]: 22.6%
viability, T/C [10]: 24.2%
viability, T/C [11]: 26.3%
viability, T/C [12]: 24.8%
viability, T/C (second compound 3.16 µM, first compound 0.000316 µM): 24.2%
viability, T/C (second compound 3.16 µM, first compound 0.001 µM): 18.1%
viability, T/C [13]: 17.8%
viability, T/C [14]: 18.7%
viability, T/C [15]: 13.7%
viability, T/C [16]: 13.2%
viability, T/C (second compound 10 µM, first compound 0.000316 µM): 20.4%
viability, T/C (second compound 10 µM, first compound 0.001 µM): 18.1%
viability, T/C [17]: 15.8%
viability, T/C [18]: 18.4%
viability, T/C [19]: 16.8%
viability, T/C [20]: 13.2%
